Entries after “also recorded” stand apart in the source; their conditions may differ. Read-outs that look alike come from different tables or passages of the source.
Assays:
[1] = test system: reserpine-induced hypolocomotion in rats; assay: Reversal of reserpine-induced hypolocomotion in rats; details: 10 μMol/kg, ip; for duration of locomotor activation: locomotion monitored for 6 h; for reversal of reserpine-induced akinesia / hypolocomotion (horizontal activity): reserpine 5 mg/kg sc, 18 h pretreatment, rats
Experimental: In this model depletion of catecholamines by reserpine results in catalepsy in rats.
The following commercially available drug was used in the experiment: reserpine hydrochloride (Alfa Aesar). […] The compounds for this study were administered in a volume of 0.1-0.2 mL for subcutaneous administration and 0.5-0.7 ml for interaperitoneal administration into each rat.
In rodent studies, animals were male and female Sprague-Dawley rats from Harlan (Indianapolis, Ind.) weighing 220-225 g unless otherwise specified. Animals were maintained in sawdust-lined cages in a temperature and humidity controlled environment at 22±1° C. and 60±5% humidity, respectively. A 12 h light/dark cycle was maintained, with lights on from 6:00 a.m. to 6:00 p.m. They were group-housed with unrestricted access to food and water. All experiments were performed during the light component.
Reserpine (5.0 mg/kg, sc) was administered 18 h before the injection of drug or vehicle. The rats were placed individually in the chambers for 1 h for acclimatization before administration of the test drugs or vehicle. Immediately after administration of drug or vehicle, animals were individually placed in Opto-Varimex 4 animal activity monitor chamber (Columbus Instruments, Ohio, USA) to start measuring locomotor activity. Locomotion was monitored for 6 h. […] The data were presented as horizontal activity (HACTV). […] The data were analyzed by one-way analysis of variance (ANOVA) followed by Dunnett's post hoc test.

human DA D2 receptors = human DA D2 receptors (Homo sapiens (Human), UniProt P14416); assay: [35S]GTPγS binding stimulation, human D2 receptors in CHO cells; assay type: biochemical; details: for Emax: compared with maximum stimulation by full agonist DA
PC12 cells [2] = assay: MTT neuroprotection against 6-OHDA-induced toxicity; assay type: cell-based, rat; details: for concentration of greatest protective effect: 24 h pretreatment, then 75 μM 6-OHDA 24 h; for increase in cell survival compared to 6-OHDA treated alone: at concentration of greatest protective effect, 75 μM 6-OHDA
Experimental: To investigate the neuroprotection property of the selected target molecules (−)-91b, (−)-95a and (−)-95c against 6-OHDA-induced cytotoxicity, we used dopaminergic rat adrenal Pheochromocytoma PC12 cells. As reported above, treatment of PC12 cells with 6-OHDA at 75 μM for 24 h produced ˜50% loss in cells viability and this concentration was used in subsequent experiments. […] However, (−)-95a produced some incremental toxicity starting at 20 μM dose (FIG. 4B). The potential neuroprotective effects of (−)-91b, (−)-95a and (−)-95c against 6-OHDA-induced toxicity were evaluated next. […] At those concentration both drugs increased cell survival by ˜20% compared to 6-OHDA (75 μM) treated alone (FIGS. 4D and 4F), indicating neuroprotective effect of these drugs. […] This could be due to the fact that the compound by itself produced toxicity to the cells at doses ≥20 μM and the presence of 6-OHDA enhanced the toxicity (FIG. 4B).
PC12 cells (ATCC CRL1721.1, Manassas, Va., USA), a rat adrenal pheochromocytoma cell line, were cultured in T-75 flasks (Greiner Bio One, Frickenhausen, Germany) and maintained in RPMI 1640 medium supplemented with 10% heat inactivated horse serum, 5% fetal bovine serum, 100 U/ml penicillin, and 100 μg/mL streptomycin at 37° C. in 95% air/5% CO2. Stock solutions of (−)-91b, (−)-95a, (−)-95c, and 6-hydroxydopamine (6-OHDA) were prepared in dimethylsulfoxide (DMSO) and aliquots were stored at −20° C. and −80° C., respectively. For all experiments assessing neuroprotective effects of the test compounds, PC12 cells were pretreated with indicated concentrations of (−)-91b, (−)-95a and (−)-95c for 24 h and then treated with 75 μM 6-OHDA for another 24 h. The control cells were treated with above media containing 0.01% DMSO only.
PC12 cells were plated at 17000 cells/well density in 100 μL of media in 96-well plates and incubated at 37° C. under 5% CO2 atmosphere for 24 h. Cells were treated with varying concentrations of the test compounds to determine their direct effect on cell viability. Neuroprotection experiments were conducted by treating cells for 24 h with varying concentrations of (−)-91b, (−)-95a and (−)-95c. Then the drug containing media was replaced with fresh culture media followed by treatment with 75 μM of 6-OHDA alone for an additional 24 h under the same condition. After incubation for 24 h, 5 mg/mL MTT solution (prepared in Dulbecco's phosphate-buffered saline) was added to the cells (to a final concentration of 0.5 mg/mL) and the plates were further incubated at 37° C. in 95% air/5% CO2 atmosphere for 3-4 h to produce dark-blue formazan crystals. Afterward, the plates were centrifuged at 450 g for 10 min and the supernatants were carefully removed. Formazan crystals were dissolved by adding 100 μL of methanol:DMSO (1:1) mixture to each well and shaking gently at 400 rpm for 30 min at room temperature on a Thermomix R shaker (Eppendorf, Hamburg, Germany). The absorbance was measured on a microplate reader (Biotek Epoch, Winooski, Vt., USA) at 570 nm with background correction performed at 690 nm. Data from at least three experiments were analyzed using GraphPad software (version 6, San Diego, Calif., USA). Cell viability was defined as […] compared to untreated controls.

PC12 cells [3] = assay: DCFDA fluorescence assay of intracellular ROS induced by 6-OHDA; assay type: cell-based, rat; details: 20 μM, 24 h pretreatment, then 75 μM 6-OHDA 1 h
Experimental: Experimental detection of reactive oxygen species (ROS) produced by 6-OHDA was carried out by DCFDA assay. 6-OHDA, a well known neurotoxin, produces oxidative stress similar to what is observed in PD and the mechanism of neurotoxicity of 6-OHDA takes place via its auto-oxidation and subsequent generation of hydrogen peroxide. DCFDA is a non-fluorogenic dye but in the presence of ROS, it is oxidized to produce DCF which produces florescence. We have previously shown that 6-OHDA causes cell death in a dose-dependent manner. We chose 75 μM 6-OHDA as we have shown that this dose induces 40-50% cell death. […] However, the test compounds could dose dependently decrease the production of ROS induced by 6-OHDA (75 μM) in PC12 cells. In this regard, highest dose of all the three compounds was the most efficacious in producing significant antioxidant effect.
PC12 cells (ATCC CRL1721.1, Manassas, Va., USA), a rat adrenal pheochromocytoma cell line, were cultured in T-75 flasks (Greiner Bio One, Frickenhausen, Germany) and maintained in RPMI 1640 medium supplemented with 10% heat inactivated horse serum, 5% fetal bovine sérum, 100 U/ml penicillin, and 100 μg/mL streptomycin at 37° C. in 95% air/5% CO2. […]
PC12 cells were plated at 30,000 cells/well density in 100 μL media in 96-well black plates and incubated at 37° C. under 5% CO2 atmosphere for 24 h. […] After incubation for 1 h, the fluorescence was measured using spectrophotometer fluorescence generated microplate reader (Biotek Epoch, Winooski, Vt., USA) at excitation 497 nm and emission at 527 nm. […] The specific fluorescence emission was calculated after subtraction of the DCFDA untreated control cells from the DCFDA treated cells for both the background and 1 h treatment conditions. This was followed by the division of the 1 h treatment data by the background activity which was determined from vials before treatment with 6-OHDA, to derive the final data point.

human DA D3 receptors = human DA D3 receptors (Homo sapiens (Human), UniProt P35462); assay: [35S]GTPγS binding stimulation, human D3 receptors in CHO cells; assay type: biochemical; details: for Emax: compared with maximum stimulation by full agonist DA
Sequence of human DA D3 receptors (P35462 whole entry): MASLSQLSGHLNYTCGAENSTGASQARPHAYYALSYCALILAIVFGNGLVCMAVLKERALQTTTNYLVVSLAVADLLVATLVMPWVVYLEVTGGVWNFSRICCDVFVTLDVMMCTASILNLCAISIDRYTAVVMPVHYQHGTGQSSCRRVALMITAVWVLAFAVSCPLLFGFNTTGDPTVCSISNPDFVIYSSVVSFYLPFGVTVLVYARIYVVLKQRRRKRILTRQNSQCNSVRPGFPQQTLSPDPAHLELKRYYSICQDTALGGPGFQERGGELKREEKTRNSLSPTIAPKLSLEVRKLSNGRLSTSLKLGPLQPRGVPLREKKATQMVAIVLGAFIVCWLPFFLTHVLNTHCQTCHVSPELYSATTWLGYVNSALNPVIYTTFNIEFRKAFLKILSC

Sequence of human DA D2 receptors (P14416 whole entry): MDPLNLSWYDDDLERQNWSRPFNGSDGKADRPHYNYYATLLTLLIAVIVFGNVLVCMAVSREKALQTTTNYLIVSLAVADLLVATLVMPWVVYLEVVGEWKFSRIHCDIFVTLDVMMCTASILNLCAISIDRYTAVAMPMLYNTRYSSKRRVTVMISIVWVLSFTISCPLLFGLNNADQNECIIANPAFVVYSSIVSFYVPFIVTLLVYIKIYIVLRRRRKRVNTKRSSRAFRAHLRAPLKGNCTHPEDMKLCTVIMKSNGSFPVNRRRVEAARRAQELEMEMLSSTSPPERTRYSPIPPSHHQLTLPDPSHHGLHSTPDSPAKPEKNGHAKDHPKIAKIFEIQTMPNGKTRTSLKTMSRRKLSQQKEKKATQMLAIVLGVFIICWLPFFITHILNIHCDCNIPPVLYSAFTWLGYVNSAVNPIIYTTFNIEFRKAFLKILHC

SMILES	duration of locomotor activation [1]	reversal of reserpine-induced akinesia / hypolocomotion (horizontal activity) [1]	EC50 (human DA D2 receptors; CHO cells, read-out: EC50 (GTPγS), D2) [nM]	Emax (human DA D2 receptors) [%]	concentration of greatest protective effect (PC12 cells [2]) [µM]	increase in cell survival compared to 6-OHDA treated alone (PC12 cells [2]) [%]	reduction in ROS (PC12 cells [3]) [%]	EC50 (human DA D3 receptors; CHO cells, read-out: EC50 (GTPγS), D3) [nM]	Emax (human DA D3 receptors) [%]	EC50 (human DA D2 receptors) [nM]	EC50 (human DA D3 receptors) [nM]
CCCN(CCN1CCN(c2ccc3[nH]c4ccccc4c3c2)CC1)[C@H]1CCc2nc(N)sc2C1 [(−)-91b, (S)—N^6-(2-(4-(9H-carbazol-3-yl)piperazin-1-yl)ethyl)-N^6-propyl-4,5,6,7-tetrahydrobenzo[d]thiazole-2,6-diamine]	significant enhancement of locomotion for the duration of the study of 6 h	significantly reversed akinesia; also recorded: significantly different	48.7	87 to 93	5	~20	76	0.96	87 to 93	–	–
CCCN(CCN1CCN(c2ccc3c(c2)[nH]c2ccccc23)CC1)[C@H]1CCc2c(O)cccc2C1 [Compound (−)-95a, (S)-6-((2-(4-(9H-carbazol-2-yl)piperazin-1-yl)ethyl)(propyl)amino)-5,6,7,8-tetrahydronaphthalen-1-ol]	significant enhancement of locomotion for the duration of the study of 6 h	significantly reversed akinesia; also recorded: highest in vivo activity; also recorded: significantly different	–	85 to 92	10	15	93	–	85 to 92	0.87	0.23
